Measurements taken from patent US20210181109A1 (FUJIFILM Corporation, priority 2018, published 2021).
Structures can show the parent of a compound that is named as a salt.

Columns and labels:
[1] = NAC depletion percent, HPLC-UV detection (281 nm); conditions: single substance, test substance solution 1 mmol/L, Reference (UV method)
Outline: (§1)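 NAC at 5 μmol/L in pH 8.0 phosphate buffer reacted with test substance (1 mmol/L stock in water, acetonitrile, acetone or 5% DMSO/acetonitrile) 24 h at 25 °C in the dark, n=3. Stopped with TFA (0.5% final); unreacted NAC quantified by HPLC, depletion percent calculated against blank without test substance.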

[2] = NAL depletion percent, HPLC-UV detection (281 nm); conditions: single substance, test substance solution 1 mmol/L, Reference (UV method)
Outline: (§2)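 NAL (5 μmol/L, pH 10.2 phosphate buffer) reacted with test substance (1 mmol/L stock in water, acetonitrile, acetone or 5% DMSO/acetonitrile) for 24 h at 25 °C in the dark; stopped with TFA to 0.5%. Unreacted NAL quantified by HPLC (UV or fluorescence), n=3; depletion % relative to substance-free blank.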

[3] = Average score of NAC and NAL depletion and prediction of skin allergenicity, UV method; conditions: single substance, Reference (UV method); for Prediction result: criterion average score […]; for Average score: test substance solution 1 mmol/L
Outline: (§3)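 Score is the mean of NAC and NAL depletion percentages, rounded at the second decimal place. Test substances classed as allergenic (S) or non-allergenic (NS) from depletion of NAC, NAL, or their average score.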

[4] = known values, LLNA-test-based classification; − for non-allergenic substances; cited from earlier work
[5] = Average score of NAC and NAL depletion and prediction of skin allergenicity, fluorescence method; conditions: single substance, fluorescence method; for Prediction result: criterion average score […]; for Average score: test substance solution 1 mmol/L
Outline: as §3

[6] = NAL depletion percent, HPLC-fluorescence detection; conditions: single substance, test substance solution 1 mmol/L, fluorescence method
Outline: as §2

[7] = NAC depletion percent, HPLC-fluorescence detection; conditions: single substance, test substance solution 1 mmol/L, fluorescence method
Outline: as §1

| Compound | NAC depletion (%) [1] [%] | NAL depletion (%) [2] [%] | Prediction result [3] | Average score [3] [%] | EC3 (%) [4] [%] | Prediction result [5] | Average score [5] [%] | NAL depletion (%) [6] [%] | NAC depletion (%) [7] [%] |
| --- | --- | --- | --- | --- | --- | --- | --- | --- | --- |
| CCCCCCCCCCCCOC(=O)c1cc(O)c(O)c(O)c1 [Lauryl gallate] | 100.0 | 19.0 | S (S represents as being an allergenic substance) | 59.5 | 0.3 | S (S represents as being an allergenic substance) | 57.7 | 15.9 | 99.5 |
| CCCCCCCCCCCCCCCC(=O)Cl [Palmitoyl chloride] | 5.8 | 95.9 | S (S represents as being an allergenic substance) | 50.8 | 8.8 | S (S represents as being an allergenic substance) | 54.9 | 98.3 | 11.5 |
| CCC(=O)C=Cc1ccc(OC)cc1 [1-(4-Methoxyphenyl)-1-penten-3-one] | 1.6 | 4.2 | NS (NS represents as being a non-allergenic substance) | 2.9 | 9.3 | NS (NS represents as being a non-allergenic substance) | 0.8 | 0.4 | 1.2 |
| C=C(C)C(=O)OCCOC(=O)C(=C)C [Ethylene glycol dimethacrylate] | 5.9 | 2.6 | NS (NS represents as being a non-allergenic substance) | 4.3 | 28 | NS (NS represents as being a non-allergenic substance) | 4.4 | 1.5 | 7.3 |
| CCOC(=O)/C=C\C(=O)OCC [Diethyl maleate] | 31.8 | 7.7 | S (S represents as being an allergenic substance) | 19.8 | 5.8 | S (S represents as being an allergenic substance) | 18.0 | 4.7 | 31.2 |
